# Tested on: ATDC5 cells
# Assay: Induction of chondrogenic differentiation of ATDC5 cells (Alcian blue staining of proteoglycan)
# Format: cell-based
# Conditions: ATDC5 cells incubated for 24 days; compound (1) at 1-10000 ng/ml; results in FIG. 1
# Procedure: The inducing activity by the compound (1) on chondrogenic differentiation was evaluated in accordance with the below-mentioned method.
# (1) The ATDC5 cell line provided by RIKEN Cell Bank (Tsukuba, Japan) was grown in a 1:1 mixture of Dulbecco's modified Eagle's medium and Ham's F12 medium (Nikken Biomedical Laboratory, Kyoto, Japan) supplemented with 10% heat-inactivated fetal bovine serum (Intergen, Purchase, N.Y.).
# (2) The above ATDC5 cells were plated in 12-multiwell plastic plate at a density of 1×10^5 cells/well in the medium. After 4 hr, the medium was replaced with fresh medium containing the compound (1) or Cyclosporin A (CsA), and the culture was continued for a 24 days with medium change every 2 or 3 days. Cells were fixed with methanol and stained 0.1% Alcian blue (Sigma Chemical Co., St. Louis, Mo.) dissolved in 0.1 M hydrochloric acid for 16 hr at room temperature. Cells were then rinsed three times with distilled water, and the amount of cell-associated dye was measured at 620 nm after extraction with 6 M guanidine-HCl (300 μl/well)
# ATDC5 cells were incubated with the compound (1) or CsA for 24 days and the amount of proteoglycan was assayed.
row,Compound,"chondrogenic differentiation (amount of proteoglycan, cell-associated Alcian blue dye measured at 620 nm)"
1,COC1CC(/C=C(\C)C2OC(=O)C3CCCCN3C(=O)C(=O)C3(O)OC(C(OC)CC(C)C/C(C)=C/C(CC(C)=O)C(=O)CC(O)C2C)C(OC)CC3C)CCC1O (centres unmarked) [compound (1)],induced differentiation into chondrocyte in a concentration-dependent manner
2,Cyclosporin A [CsA],did not induce the differentiation

# From patent publication US20060199832A1, “Use of non-immunosupressive pipecolic acid derivatives for inducing chondrogenic differentiation” (Astellas Pharma Inc., priority 2003, published 2006)
